Measured values published in patent US5688488A, “Composition and method for tumor imaging” (priority 1995, dated 1997).
Blank lines part the entries; values can stand above or below the molecule they belong to.

Tests used:
[1] = system: Subcutaneous KB Cell Tumors; conditions: mouse, in vivo, iv; for Tumor-to-Non-target Ratio: Tumor/blood / Tumor-to-Non-target Ratio: Tumor/kidney / Tumor-to-Non-target Ratio: Tumor/liver / Tumor-to-Non-target Ratio: Tumor/muscle: 240 min; for Percentage of Injected Dose per Gram of Tissue: Blood / Percentage of Injected Dose per Gram of Tissue: Heart / Percentage of Injected Dose per Gram of Tissue: Kidney / Percentage of Injected Dose per Gram of Tissue: Liver / Percentage of Injected Dose per Gram of Tissue: Lungs / Percentage of Injected Dose per Gram of Tissue: Muscle / Percentage of Injected Dose per Gram of Tissue: Tumor: 4 h
KB cells = experiment: Uptake of ^67 Ga-DF-folate complex by cultured KB cells; type: cell-based, human
Procedure: Cell Culture. KB cells, a human nasopharyngeal epidermal carcinoma cell line that greatly overexpresses the folate binding protein, were cultured continuously as a monolayer at 37° C. in a humidified atmosphere containing 5% CO2 in folate-deficient modified Eagle's medium (FDMEM) (a folate-free modified Eagle's medium supplemented with 10% (v/v) heat-inactivated fetal calf serum as the only source of folate) containing penicillin (50 units/mL), streptomycin (50 μg/mL), and 2 mM L-glutamine. The final folate concentration in the complete FDMEM is the physiological range (~2 nM). 48 h prior to each experiment, the cells were transferred to 35 mm culture dishes at 5×10^5 cells per dish and grown to ~80% confluent.
Because folate and its conjugates bind to cell surface receptors at 4° C., but are capable of endocytosis only at higher temperatures, it is possible to separately evaluate the kinetics of binding the internalization of folate by measuring the rates of folate conjugate uptake at the two temperatures. […] By the end of the 30 min incubation, binding approached to saturation with ~18% of the initial radioactivity found associated with a cell surface.
Incubation at 37° C., a temperature which permits both binding and endocytosis, yielded similar kinetic results, however, maximal uptake reached 32% of the total conjugate added. Presumably, the difference in magnitude of the two cellular uptake curves reflects the ability of the folate receptor to internalize the conjugate and then recycle to the cell surface in its unoccupied form. […] This latter result is consistent with the inability of the α-conjugate to compete with free folate for the cell surface receptor.
To verify the involvement of a cell surface folate receptor in mediating the uptake of ^67 Ga-DF-folate(γ), binding and internalization of the complex were evaluated as a function of the complex's concentration. Cellular uptake of ^67 Ga-DF-folate(γ) was concentration dependent at both 4° C. and 37° C., saturating at levels of 20% and 35% of the total radioactivity added, respectively.

KB Tumors = experiment: Biodistribution of ^125 I-RNase-Folate conjugate and ^125 I-RNase control following I.V. administration to athymic mice with KB tumors; conditions: folate-free diet
[2] = In vivo delivery to mice of ^125 I soybean trypsin inhibitor; conditions: 15 minutes after tail vein injection, perfused
Procedure: Mice (25 g) were then injected with either the biotinylated SBTI or the control SBTI by insertion of a hypodermic syringe containing a 25 gauge needle into the tail vein of the mouse. After 15 minutes, each mouse was sacrificed and then perfused with heparin-containing isotonic saline via the direct cardiac influx and efflux method.

Tumor-to-Non-target Ratio: Tumor/blood [1]: 3.9 ± 1.2
Tumor-to-Non-target Ratio: Tumor/kidney [1]: 0.08 ± 0.01
Tumor-to-Non-target Ratio: Tumor/liver [1]: 1.16 ± 0.10
Tumor-to-Non-target Ratio: Tumor/muscle [1]: 2.56 ± 0.15
Percentage of Injected Dose per Gram of Tissue: Kidney [1]: 1.26 ± 0.19 % of injected dose per gram
Molecule: CC(=O)N([O-])CCCCCNC(=O)CCC(=O)N([O-])CCCCCNC(=O)CCC(=O)N([O-])CCCCCN.[67Ga+3] [^67 Ga-DF, reference compound]
Percentage of Injected Dose per Gram of Tissue: Blood [1]: 0.026 ± 0.009 % of injected dose per gram
Percentage of Injected Dose per Gram of Tissue: Heart [1]: 0.021 ± 0.002 % of injected dose per gram
Percentage of Injected Dose per Gram of Tissue: Liver [1]: 0.082 ± 0.010 % of injected dose per gram
Percentage of Injected Dose per Gram of Tissue: Lungs [1]: 0.054 ± 0.010 % of injected dose per gram
Percentage of Injected Dose per Gram of Tissue: Muscle [1]: 0.037 ± 0.001 % of injected dose per gram
Percentage of Injected Dose per Gram of Tissue: Tumor [1]: 0.094 ± 0.004 % of injected dose per gram
uptake by the KB cells (KB cells; controls): did not show any significant uptake

Tumor-to-Non-target Ratio: Tumor/blood [1]: 0.84 ± 0.19
Tumor-to-Non-target Ratio: Tumor/kidney [1]: 2.4 ± 0.3
Tumor-to-Non-target Ratio: Tumor/liver [1]: 2.3 ± 0.2
Tumor-to-Non-target Ratio: Tumor/muscle [1]: 5.4 ± 0.7
Percentage of Injected Dose per Gram of Tissue: Blood [1]: 13.5 ± 3.2 % of injected dose per gram
Percentage of Injected Dose per Gram of Tissue: Heart [1]: 3.4 ± 0.2 % of injected dose per gram
Percentage of Injected Dose per Gram of Tissue: Kidney [1]: 4.6 ± 0.4 % of injected dose per gram
Percentage of Injected Dose per Gram of Tissue: Liver [1]: 4.7 ± 0.3 % of injected dose per gram
Percentage of Injected Dose per Gram of Tissue: Lungs [1]: 9.1 ± 2.7 % of injected dose per gram
Percentage of Injected Dose per Gram of Tissue: Muscle [1]: 2.04 ± 0.29 % of injected dose per gram
Percentage of Injected Dose per Gram of Tissue: Tumor [1]: 10.9 ± 0.2 % of injected dose per gram
Molecule: O=C([O-])CC(O)(CC(=O)[O-])C(=O)[O-].[67Ga+3] [^67 Ga-citrate, reference compound]
cell-associated ^67 Ga radioactivity, fold lower than ^67 Ga-DF-folate(γ) (KB cells; 37° C., 30 min): 106 fold

B1: ^125 I-RNase: ^125 I labeled ribonuclease (lacking folate), control (protein, UniProt P61823 27-150, looked up)
Ribonuclease pancreatic: KETAAAKFERQHMDSSTSAASSSNYCNQMMKSRNLTKDRCKPVNTFVHESLADVQAVCSQKNVACKNGQTNCYQSYSTMSITDCRETGSSKYPNCAYKTTQANKHIIVACEGNPYVPVHFDASV
modifications: 125I label
Percentage of Injected Dose per Gram: Brain (KB Tumors; 1 hour after i.v.): 0.19 ± 0.06 % of injected dose per gram
Percentage of Injected Dose per Gram: Brain (KB Tumors; 4 hours after i.v.): 0.06 ± 0.004 % of injected dose per gram
Percentage of Injected Dose per Gram: Brain (KB Tumors; 24 hours after i.v.): 0.0055 ± 0.0006 % of injected dose per gram

B2: Control SBTI: ^125 I soybean trypsin inhibitor left as an unmodified control (protein, UniProt P01070 25-205, looked up)
Trypsin inhibitor A: DFVLDNEGNPLENGGTYYILSDITAFGGIRAAPTGNERCPLTVVQSRNELDKGIGTIISSPYRIRFIAEGHPLSLKFDSFAVIMLCVGIPTEWSVVEDLPEGPAVKIGENKDAMDGWFRLERVSDDEFNNYKLVFCPQQAEDDKCGDIGISIDHDDGTRRLVVSKNKPLVVQFQKLDKESL
modifications: 125I label
Counts per minute/gram wet weight: Brain [2]: 0 Counts per minute/gram wet weight
Counts per minute/gram wet weight: Heart [2]: 0 Counts per minute/gram wet weight
Counts per minute/gram wet weight: Intestine [2]: 0 Counts per minute/gram wet weight
Counts per minute/gram wet weight: Kidney [2]: 5152 Counts per minute/gram wet weight
Counts per minute/gram wet weight: Liver [2]: 535 Counts per minute/gram wet weight
Counts per minute/gram wet weight: Lung [2]: 107 Counts per minute/gram wet weight
Counts per minute/gram wet weight: Muscle [2]: 0 Counts per minute/gram wet weight
